Reference: US20240398759A1, “INHIBITING SEROTONIN TRANSPORTER PROTEIN (5-HTT)” (priority 2022, published 2024)
Read-outs that look alike come from different tables or passages of the source.

How the values were obtained:
[1] = biological target: PDE4D2 (Homo sapiens (Human), UniProt Q08499); test: PDE4 inhibition assay (fluorescence polarization), PDE4D2; format: biochemical
Protocol: (§1) 100 μM dilutions of the test compounds were prepared in assay buffer (10% DMSO concentration) and 5 μl of the dilution was added to a 50 μl reaction so that the final concentration of DMSO is 1% in all of reactions. The enzymatic reactions were conducted at room temperature for 60 minutes in a 50 μl mixture containing PDE assay buffer, 100 nM FAM-cAMP, a PDE enzyme (Table 2.3.1) and the test compound (Section 2.2). After the enzymatic reaction, 100 μl of a binding solution (1:100 dilution of the binding agent with the binding agent diluent) was added to each reaction and the reaction was performed at room temperature for 60 minutes. Fluorescence intensity was measured at an excitation of 485 nm and an emission of 528 nm using a Tecan Infinite M1000 microplate reader.
(§2) • 1) Dilute 20 μM FAM-Cyclic-3′, 5′-AMP stock 100-fold with PDE buffer to make a 200 nM solution. • 2) Add 25 μl of FAM-Cyclic-3′,5′-AMP (200 nM) to each well designated “Positive Control”, “Test Inhibitor”, and “Substrate Control”. • 3) Add 20 μl of PDE assay buffer to each well designated “Substrate Control” and 45 μl of PDE assay buffer to each well designated “Blank”. • 4) Add 5 μl of inhibitor solution to each well designated “Test Inhibitor”. For the wells labeled “Positive Control”, “Substrate Control” and “Blank”, add 5 μl of the same solution without inhibitor (inhibitor buffer). • 5) Thaw PDE on ice. Upon first thaw, briefly spin tube containing enzyme to recover the full contents of the tube. • 6) Dilute PDE4 in PDE buffer to 7.5 pg/μl (0.15 ng/reaction)*. Initiate reaction by adding 20 µl of PDE4 (7.5 pg/μl) to the wells designated “Positive Control” and “Test Inhibitor.” • 7) Incubate at room temperature for 1 hour.
(§3) • 1) Mix binding agent thoroughly and dilute binding agent 1:100 with binding agent diluent. • 2) Add 100 μl diluted binding agent to each microwell. Incubate at room temperature for 1 hour with slow shaking. • 3) Read the fluorescent polarization of the sample in a microtiter-plate reader equipped for the measurement of fluorescence polarization, capable of excitation at wavelengths ranging from 485±5 nm and detection of emitted light ranging from 528±10 nm. Blank value is subtracted from all other values. • 4) Data Analysis: PDE activity assays were performed in duplicate at each concentration. Fluorescence intensity is converted to fluorescence polarization using the Tecan Magellan6 software. The fluorescence polarization data were analyzed using the computer software, Graphpad Prism. The fluorescence polarization (FPt) in absence of the compound in each data set was defined as 100% activity. In the absence of PDE and the compound, the value of fluorescent polarization (FPb) in each data set was defined as 0% activity. The percent activity in the presence of the compound was calculated according to the following equation: % activity=(FP−FPb)/(FPt−FPb)×100%, where FP=the fluorescence polarization in the presence of the compound. The values of % activity versus a series of compound concentrations were then plotted using non-linear regression analysis of sigmoidal dose-response curve generated with the equation Y=B+(T−B)/1+10^(LogEC50−X)×Hill Slope), where Y=percent activity, B=minimum percent activity, T=maximum percent activity, X=logarithm of compound and Hill Slope=slope factor or Hill coefficient. The IC50 value was determined by the concentration causing a half-maximal percent activity.

[2] = in vivo; settings: beagle, dog
Excerpt: (§4) HPLC Instrument: Shimsadzu (DGU-20A5R, Serial No: L20705621435 IX; LC-30AD Serial No: L20555611905 AE and L20555611816 AE; SIL-L30AC, Serial No: L20565605499 AE; Rack Changer II Serial No. L20585601125 SS; CTO20A: Serial No. L20205620413 CD; CBM-20A: Serial No. L20235636200 CD) • MS: AB API 5500 LC/MS/MS instrument (Serial No. EF221221812) • Column: Phenomenex Synergi 2.5 μm Polar-RP 100A. (50×3 mm) • Mobile Phase: (A) 5% Acetonitrile in Water (0.1% Formic acid); (B) 95% Acetonitrile in Water (0.1% Formic acid) • Samples: 50 μL of plasma sample+5 μL of blank solution+200 μL of acetonitrile for PPE (protein precipitation extraction).
(§5) The desired serial concentrations of working solutions were achieved by diluting stock solution of analyte with 50% acetonitrile in water solution. 5 μL of working solutions (5, 10, 20, 50, 100, 500, 1000, 5000, 10000 ng/mL) were added to 50 μL of the blank Beagle Dog plasma to achieve calibration standards of 0.5˜1000 ng/mL (0.5, 1, 2, 5, 10, 50, 100, 500, 1000 ng/mL) in a total volume of 55 μL. Five quality control samples at 1 ng/mL, 2 ng/mL, 5 ng/mL, 50 ng/mL and 800 ng/mL for plasma were prepared independently of those used for the calibration curves. These QC samples were prepared on the day of analysis in the same way as calibration standards.
(§6) 55 μL standards, 55 μL QC samples and 55 μL unknown samples 50 μL plasma with 5 μL blank solution) were added to 200 μL of acetonitrile containing IS mixture for precipitating protein respectively. Then the samples were vortexed for 30 s. After centrifugation at 4 degree Celsius, 3900 rpm for 15 min, the supernatant was diluted 3 times with water.

[3] = human, 1 µM
Protocol: (§7) A 2.5 uL aliquot of 100 μM test compound was incubated with 247.5 uL of cryopreserved hepatocytes suspended in serum-free incubation medium at 1 million viable cells/mL. The mixture was incubated at 37° C. and shaken at 500 rpm for the designated time points (0.5, 5, 10, 15, 30, 60, 90, or 120 min). At each time point, 25 uL aliquot of incubation mixture was transferred to 125 uL of cold acetonitrile containing internal standard, followed by centrifugation for 30 min at 3,220 g. 100 uL of supernatant was mixed with 100 uL of distilled water for analysis by LC-MS/MS. Peak area ratios were determined from extracted ion chromatograms and percent recovery was calculated.

[4] = biological target: SERT (Homo sapiens (Human), UniProt P31645); test: SERT inhibition assay (Neurotransmitter Transporter fluorescence uptake, stable 5HTT HEK293 cells); format: cell-based; settings: n=6 ± SD
Protocol: SERT inhibition was measured using a Neruotransmitter Transportation Fluorescence assay. Briefly, stable 5HTT HEK293 cells were prepared in a 384 microwell plate (20,000 cells per 20 μL well). Compounds were prepared by in assay buffer (20 mM HEPES in HBSS, 0.1% BSA) at a top concentration of 1 μM. 10 doses of test compound (3-fold serial dilution) were added to the plated cells and incubated for 30 minutes at 37° C. 25 μL of dye solution (Molecular Devices Neurotransmitter Transporter Uptake Assay Kit) was added per well and incubated for 30 minutes at 37° C.

[5] = biological target: PDE4C1 (Homo sapiens (Human), UniProt Q08493); test: PDE4 inhibition assay (fluorescence polarization), PDE4C1; format: biochemical
Protocol: as §1, §2, §3

[6] = biological target: PDE4B2 (Homo sapiens (Human), UniProt Q07343); test: PDE4 inhibition assay (fluorescence polarization), PDE4B2; format: biochemical
Protocol: as §1, §2, §3

[7] = in vitro; settings: human hepatocytes
Protocol: as §7

[8] = beagle, dog, in vivo
Excerpt: as §4, §5, §6

[9] = biological target: PDE4A1A (Homo sapiens (Human), UniProt P27815); test: PDE4 inhibition assay (fluorescence polarization), PDE4A1A; format: biochemical
Protocol: as §1, §2, §3

[10] = Hepatocyte metabolism (stability in cryopreserved hepatocytes); settings: human hepatocytes
Protocol: as §7

[11] = tested on: mouse behavior; test: SmartCube system behavioral signature in mice; format: in vivo
Excerpt: To confirm that compound 018 and Compound 019 has antidepressant effects, the SmartCube® system (Psychogenics, Inc., Paramus, NJ) was used. This system uses features derived from mouse behavioral data to classify compounds for their ability to treat neuro-psychiatric symptoms by comparing the features to a proprietary reference database of behavioral feature sets that are linked to classes of marketed drugs known to treat neuro-psychiatric symptoms. Thus the system can be used as a model to identify the psychiatric effect of a compound by comparing the effects of the compounds against drugs with known validated effects. By comparing the responses of animals to known drugs, the test drug can be categorized according to its function; for example, hallucinogen, anxiogenic, analgesic, cognitive enhancer, psychostimulant, mood stabilizer, high dose anti-psychotic, anti-psychotic, sedative/hypnotic, anxiolytic, high dose antidepressant, antidepressant.
Once all features are extracted from the raw data through an automated pipeline, proprietary bioinformatics algorithms are used to decorrelate groups of features and find the combination of values that best separate different groups of interest. For each compound, at each dose, they system provides a probability that the drug is active and breaks down such putative activity into the different classes of interest.
Mice were tested in the SmartCube® system where they were exposed to a sequence of challenges during the 45-minute test period. The cubes were cleaned between each run.
For class and subclass analysis, a reference data set has been built from hundreds of drug doses in multiple drug classes plus a control group. Each reference drug was tested at multiple doses appropriate for that drug in mice. The best performing classifiers were chosen from our evaluation tests and two separate types of classifiers were built that make independent predictions at drug class and subclass levels. The Class consists of drugs that are currently in the market or have been clinically validated for that specific indication. The sub-class consists of both marketed drugs and other compounds that have been mechanistically validated and is a larger set than the Class.
Data was processed using proprietary computer vision and data mining algorithms and the results were compared to signatures of the reference compounds in our database. Multiple analyses of the data was performed to quantitatively produce independent predictions of drug class, and drug subclass. The behavioral signatures of the test drug were evaluated using these classifiers to predict potential therapeutic utility.

[12] = biological target: 5-HT transporter (SERT) (Homo sapiens (Human), UniProt P31645); settings: cited from earlier work
[13] = Pharmacokinetic profile in dogs (IV and PO); settings: dog, mean n=3
Excerpt: as §4, §5, §6

PDE4A1A, sequence (P27815 other isoform, or with tags, fused parts or gaps): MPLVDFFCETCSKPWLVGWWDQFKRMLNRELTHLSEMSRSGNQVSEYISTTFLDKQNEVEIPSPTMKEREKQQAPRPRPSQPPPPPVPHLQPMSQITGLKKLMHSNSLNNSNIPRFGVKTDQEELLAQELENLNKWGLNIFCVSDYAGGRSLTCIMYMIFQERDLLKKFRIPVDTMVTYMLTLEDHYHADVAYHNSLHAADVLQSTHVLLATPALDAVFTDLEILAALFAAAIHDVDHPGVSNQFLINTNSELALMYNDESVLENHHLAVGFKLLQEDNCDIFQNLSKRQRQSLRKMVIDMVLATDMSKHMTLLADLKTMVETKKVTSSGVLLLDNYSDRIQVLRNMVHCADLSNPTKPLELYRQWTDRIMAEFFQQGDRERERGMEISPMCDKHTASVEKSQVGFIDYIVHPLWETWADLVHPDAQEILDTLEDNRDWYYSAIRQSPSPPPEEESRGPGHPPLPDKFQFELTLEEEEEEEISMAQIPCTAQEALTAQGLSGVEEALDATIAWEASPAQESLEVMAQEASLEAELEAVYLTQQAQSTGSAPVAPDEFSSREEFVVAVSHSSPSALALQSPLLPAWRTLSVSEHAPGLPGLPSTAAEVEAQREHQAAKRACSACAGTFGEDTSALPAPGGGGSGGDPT
PDE4D2, sequence (Q08499 303-809): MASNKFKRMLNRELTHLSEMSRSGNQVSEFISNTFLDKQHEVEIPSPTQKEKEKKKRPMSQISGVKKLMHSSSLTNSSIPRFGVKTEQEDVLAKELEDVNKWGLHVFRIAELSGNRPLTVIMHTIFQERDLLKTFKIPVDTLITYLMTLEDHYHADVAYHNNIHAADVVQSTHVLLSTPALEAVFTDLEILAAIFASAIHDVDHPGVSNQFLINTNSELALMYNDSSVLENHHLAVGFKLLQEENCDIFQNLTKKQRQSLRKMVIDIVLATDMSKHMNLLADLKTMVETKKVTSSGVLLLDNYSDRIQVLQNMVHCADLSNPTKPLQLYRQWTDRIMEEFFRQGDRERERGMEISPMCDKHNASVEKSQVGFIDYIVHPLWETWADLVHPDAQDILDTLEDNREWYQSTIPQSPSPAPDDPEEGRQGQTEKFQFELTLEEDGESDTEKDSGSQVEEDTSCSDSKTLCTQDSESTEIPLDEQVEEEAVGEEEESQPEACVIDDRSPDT
PDE4B2, sequence (Q07343 other isoform, or with tags, fused parts or gaps): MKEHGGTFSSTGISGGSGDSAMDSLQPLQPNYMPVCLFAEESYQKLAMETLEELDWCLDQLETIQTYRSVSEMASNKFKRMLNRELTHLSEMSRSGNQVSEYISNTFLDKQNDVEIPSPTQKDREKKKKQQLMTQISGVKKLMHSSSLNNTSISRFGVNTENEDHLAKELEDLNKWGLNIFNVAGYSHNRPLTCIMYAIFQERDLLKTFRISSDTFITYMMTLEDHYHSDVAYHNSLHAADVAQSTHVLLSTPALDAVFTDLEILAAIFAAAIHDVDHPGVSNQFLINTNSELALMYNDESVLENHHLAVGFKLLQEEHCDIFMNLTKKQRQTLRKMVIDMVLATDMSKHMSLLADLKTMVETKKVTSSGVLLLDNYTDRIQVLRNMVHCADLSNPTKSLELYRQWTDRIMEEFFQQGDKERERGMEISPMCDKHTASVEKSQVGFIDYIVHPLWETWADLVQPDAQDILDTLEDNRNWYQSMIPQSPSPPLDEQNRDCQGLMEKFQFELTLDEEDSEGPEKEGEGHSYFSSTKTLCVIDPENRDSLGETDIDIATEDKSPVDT
PDE4C1, sequence (Q08493 whole entry): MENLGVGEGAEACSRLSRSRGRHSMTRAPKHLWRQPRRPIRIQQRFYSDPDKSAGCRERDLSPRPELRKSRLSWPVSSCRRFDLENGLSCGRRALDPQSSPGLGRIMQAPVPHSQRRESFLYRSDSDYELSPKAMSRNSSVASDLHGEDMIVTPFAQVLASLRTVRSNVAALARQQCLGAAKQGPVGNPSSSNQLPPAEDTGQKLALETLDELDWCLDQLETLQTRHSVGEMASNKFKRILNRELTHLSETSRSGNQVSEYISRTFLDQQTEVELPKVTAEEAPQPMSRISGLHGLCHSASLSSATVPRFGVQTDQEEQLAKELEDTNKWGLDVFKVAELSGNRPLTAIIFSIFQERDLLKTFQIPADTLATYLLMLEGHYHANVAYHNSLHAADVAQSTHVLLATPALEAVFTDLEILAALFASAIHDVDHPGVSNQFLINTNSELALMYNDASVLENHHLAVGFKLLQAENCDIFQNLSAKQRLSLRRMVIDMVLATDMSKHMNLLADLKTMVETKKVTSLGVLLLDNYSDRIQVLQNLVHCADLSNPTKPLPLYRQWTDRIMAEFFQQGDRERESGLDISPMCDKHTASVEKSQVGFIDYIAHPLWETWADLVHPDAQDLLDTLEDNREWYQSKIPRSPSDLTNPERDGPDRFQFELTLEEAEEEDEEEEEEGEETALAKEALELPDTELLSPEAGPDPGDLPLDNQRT

With COc1ccc([C@@]23CC[C@@H](O)C[C@@H]2N(C)CC3)cc1OC [Compound 018, (3aS,6R,7aS)-3a-(3,4-dimethoxyphenyl)-1-methyloctahydro-1H-indol-6-ol] the “PDE4D2 %INH @ 10 μM” value ([1]; 10 μM) was 4%, the inhibition at 10 µM ([1]; 10 μM, read-out: PDE4D2 %INH @ 10 μM) was ≤ 5% and the AUC(0-inf) ([2]; iv, 2 mg/kg) was 712 ng·h/mL. The AUC(0-t) ([2]; iv, 2 mg/kg) was 710 ng·h/mL, the C0 ([2]; iv, 2 mg/kg) was 6250 ng/mL and the MRT inf ([2]; iv, 2 mg/kg) was 0.71 h. The half-life ([2]; iv, 2 mg/kg) was 1.78 h, the AUC(0-inf) ([2]; po, 10 mg/kg) was 151 ng·h/mL and the AUC(0-t) ([2]; po, 10 mg/kg) was 144 ng·h/mL. For the same compound, the Cmax ([2]; po, 10 mg/kg) was 84.4 ng/mL, the MRT inf ([2]; po, 10 mg/kg) was 3.95 h and the Tmax ([2]; po, 10 mg/kg) was 0.28 h. The half-life ([2]; po, 10 mg/kg) was 5.95 h, the “% QH” value [3] was 13% and the CLHB [3] was 3 mL/min/kg. For the same compound, the IC50 [4] was 21.9 ± 8 nM, the “PDE4C1 % INH @ 10 μM” value [5] was 1% and the “PDE4C1 % INH @ 10 μM” value ([5]; listed as Compound 18) was “no more than 5%”. The “PDE4B2 % INH @ 10 μM” value [6] was 3%, the inhibition at 10 µM ([6]; read-out: PDE4B2 % INH @ 10 μM) was ≤ 5% and the CLint scaled at 1 µM [7] was 3 mL/min/kg. For the same compound, the half-life at 1 µM [7] was > 2 h, the hepatocyte CLint at 1 µM [7] was 1 µL/min/1e6 cells and the “AUC_% Extrap_obs” value ([8]; iv, 2 mg/kg) was 0.26%. For the same compound, the AUClast/D ([8]; iv, 2 mg/kg) was 355, the Cl_obs ([8]; iv, 2 mg/kg) was 47.6 mL/min/kg and the “AUC_% Extrap_obs” value ([8]; po, 10 mg/kg) was 5.10%. For the same compound, the AUClast/D ([8]; po, 10 mg/kg) was 14.4, the F ([8]; po, 10 mg/kg) was 4.3% and the “PDE4A1A % INH @ 10 μM” value ([9]; 10 μM) was 5%. The inhibition at 10 µM ([9]; 10 μM, read-out: PDE4A1A % INH @ 10 μM) was ≤ 5%, the “Extraction Ratio” value [10] was 0.13 and the t1/2 [10] was >2 h. For the same compound, the behavioral activity ([11]; mice, 3 mg/kg) was < 40%, the “behavioral activity (in words)” value ([11]; mice, 3 mg/kg) was “behaviorally inactive” and the “signature in class and subclass” value ([11]; mice, 10, 30 and 100 mg/kg) was “robust antidepressant-like signature with a small portion showing psychostimulant-like signature”.

In the case of COc1ccc(C23C=CC(O)CC2N(C)CC3)cc1OC [Compound 020, (S, R, S) Mesembrenol], the “PDE4D2 %INH @ 10 μM” value ([1]; 10 μM) is reported as 72%, the “PDE4C1 % INH @ 10 μM” value [5] is reported as 32% and the “PDE4B2 % INH @ 10 μM” value [6] is reported as 62%. The “PDE4A1A % INH @ 10 μM” value ([9]; 10 μM) was 68%.

With COc1ccc(C23C=CC(O)CC2N(C)CC3)cc1OC [Compound 021, (R, R, S) Mesembrenol] the “PDE4D2 %INH @ 10 μM” value ([1]; 10 μM) was 15%, the “PDE4C1 % INH @ 10 μM” value [5] was 7% and the “PDE4B2 % INH @ 10 μM” value [6] was 12%. For the same compound, the “PDE4A1A % INH @ 10 μM” value ([9]; 10 μM) was 22%.

With COc1ccc(C23C=CC(O)CC2N(C)CC3)cc1OC [Compound 023, (R, S, R) Mesembrenol] the “PDE4D2 %INH @ 10 μM” value ([1]; 10 μM) was 21%, the “PDE4C1 % INH @ 10 μM” value [5] was 9% and the “PDE4B2 % INH @ 10 μM” value [6] was 16%. For the same compound, the “PDE4A1A % INH @ 10 μM” value ([9]; 10 μM) was 15%.

In the case of COc1ccc(C23C=CC(O)CC2N(C)CC3)cc1OC [Compound 024, (S, S, R) Mesembrenol], the “PDE4D2 %INH @ 10 μM” value ([1]; 10 μM) is reported as 53%, the “PDE4C1 % INH @ 10 μM” value [5] is reported as 18% and the “PDE4B2 % INH @ 10 μM” value [6] is reported as 55%. The “PDE4A1A % INH @ 10 μM” value ([9]; 10 μM) was 45%.

For COc1ccc(C23C=CC(O)CC2N(C)CC3)cc1OC (stereo not shown) [Mesembrenol], the Ki ([12]; binding to the 5-HT transporter, isolated alkaloids) is listed as 62 nM and the nH ([12]; concentration response curves, 5-HT transporter) is listed as 1.1.

In the case of (+) Mesembrine [Compound 002], the “PDE4D2 %INH @ 10 μM” value ([1]; 10 μM) is reported as 54%, the “PDE4C1 % INH @ 10 μM” value [5] is reported as 26% and the “PDE4A1A % INH @ 10 μM” value ([9]; 10 μM) is reported as 56%.

In the case of (−) Mesembrine [Compound 001], the IC50 [1] is reported as 2700 nM, the AUCInf ([13]; IV 2 mg/kg) is reported as 809 ng·h/mL and the “AUC_% Extrap_obs” value ([13]; IV 2 mg/kg) is reported as 0.53%. It also gave an AUClast ([13]; IV 2 mg/kg) of 805 ng·h/mL, an AUClast/D ([13]; IV 2 mg/kg) of 402 and a C0 ([13]; IV 2 mg/kg) of 1226 ng/mL. It also gave a Cl_obs ([13]; IV 2 mg/kg) of 44.07 mL/min/kg, an MRTInf_obs ([13]; IV 2 mg/kg) of 1.41 h and a T1/2 ([13]; IV 2 mg/kg) of 1.65 h. For the same compound, the AUCInf ([13]; PO 10 mg/kg) was 3113.0 ng·h/mL, the “AUC_% Extrap_obs” value ([13]; PO 10 mg/kg) was 0.25% and the AUClast ([13]; PO 10 mg/kg) was 3106.9 ng·h/mL. It also gave an AUClast/D ([13]; PO 10 mg/kg) of 310.7, a Cmax ([13]; PO 10 mg/kg) of 1878.0 ng/mL and an F ([13]; PO 10 mg/kg) of 76.9%. It also gave an MRTInf_obs ([13]; PO 10 mg/kg) of 1.81 h, a T1/2 ([13]; PO 10 mg/kg) of 2.99 h and a Tmax ([13]; PO 10 mg/kg) of 0.28 h. For the same compound, the IC50 [5] was 15000 nM, the IC50 [9] was 4300 nM and the “% QH” value [10] was 86%. The CLHB [10] was 18 mL/min/kg, the “Hepatocyte Clint” value [10] was 55 μL/min/10^6 cells and the t1/2 [10] was 0.217 h. The CLint ([10]; scaled) was 131 mL/min/kg.
